Reference: patent US11541055B2, “Inhibitors of human immunodeficiency virus replication” (ViiV Healthcare UK (No. 5) LIMITED, priority 2018, dated 2023)

Legend:
[1] = tested on: recombinant NL4-3 virus (Renilla luciferase) in MT-2 cells; assay: HIV cell culture assay (antiviral activity, luciferase readout); assay type: cell-based; settings: Renilla, NL43
Outline: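 Antiviral EC50 was derived via the median effect equation from luciferase signal. The signal came from MT-2 cultures infected for 4–5 days with a nef-deleted, Renilla luciferase-expressing NL4-3 reporter virus (made in 293T cells) in the presence of compound dilutions.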

[2] = Compound cytotoxicity, XTT-based colorimetric assay; assay type: cell-based; settings: human; uninfected MT2 cells, day 4, XTT
Outline: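 Run under the antiviral-assay protocol but without virus. Viability was read on day 4 and CC50 values were derived from the readout.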

SMILES	EC50 [1] [nM]	CC50 at 4 days [2] [nM]
Cn1nc(NS(C)(=O)=O)c2c(Cl)ccc(-n3c([C@H](Cc4cc(F)cc(F)c4)NC(=O)Cn4nc(C(F)F)c5c4C(F)(F)[C@@H]4C[C@H]54)nc4cc(-c5nccc(C(F)(F)F)n5)ccc4c3=O)c21 (atropisomer, axis not shown; (P)) [Example 3, N—((S)-1-((3P)-3-(4-chloro-1-methyl-3-(methylsulfonamido)-1H-indazol-7-yl)-4-oxo-7-(4-(trifluoromethyl)pyrimidin-2-yl)-3,4-dihydroquinazolin-2-yl)-2-(3,5-difluorophenyl)ethyl)-2-((3bS,4aR)-3-(difluoromethyl)-5,5-difluoro-3b,4,4a,5-tetrahydro-1H-cyclopropa[3,4]cyclopenta[1,2-c]pyrazol-1-yl)acetamide]	0.1	> 500
Cn1nc(NS(C)(=O)=O)c2c(Cl)ccc(-n3c([C@H](Cc4cc(F)cc(F)c4)NC(=O)Cn4nc(C(F)F)c5c4C(F)(F)[C@@H]4C[C@H]54)nc4cc(-c5cc(S(C)(=O)=O)ccn5)ccc4c3=O)c21 (atropisomer, axis not shown; (P)) [Example 4, N—((S)-1-((3P)-3-(4-chloro-1-methyl-3-(methylsulfonamido)-1H-indazol-7-yl)-7-(4-(methylsulfonyl)pyridin-2-yl)-4-oxo-3,4-dihydroquinazolin-2-yl)-2-(3,5-difluorophenyl)ethyl)-2-((3bS,4aR)-3-(difluoromethyl)-5,5-difluoro-3b,4,4a,5-tetrahydro-1H-cyclopropa[3,4]cyclopenta[1,2-c]pyrazol-1-yl)acetamide]	0.053	> 500
COc1ccc(-c2ccc3c(=O)n(-c4ccc(Cl)c5c(NS(C)(=O)=O)nn(C)c45)c([C@H](Cc4cc(F)cc(F)c4)NC(=O)Cn4nc(C(F)F)c5c4C(F)(F)[C@@H]4C[C@H]54)nc3c2)c(C)n1 (atropisomer, axis not shown; (P)) [Example 5, N—((S)-1-((3P)-3-(4-chloro-1-methyl-3-(methylsulfonamido)-1H-indazol-7-yl)-7-(6-methoxy-2-methylpyridin-3-yl)-4-oxo-3,4-dihydroquinazolin-2-yl)-2-(3,5-difluorophenyl)ethyl)-2-((3bS,4aR)-3-(difluoromethyl)-5,5-difluoro-3b,4,4a,5-tetrahydro-1H-cyclopropa[3,4]cyclopenta[1,2-c]pyrazol-1-yl)acetamide]	0.94	> 500
Cc1nc(C)c(-c2ccc3c(=O)n(-c4ccc(Cl)c5c(NS(C)(=O)=O)nn(C)c45)c([C@H](Cc4cc(F)cc(F)c4)NC(=O)Cn4nc(C(F)F)c5c4C(F)(F)[C@@H]4C[C@H]54)nc3c2)s1 (atropisomer, axis not shown; (P)) [Example 6, N—((S)-1-((3P)-3-(4-chloro-1-methyl-3-(methylsulfonamido)-1H-indazol-7-yl)-7-(2,4-dimethylthiazol-5-yl)-4-oxo-3,4-dihydroquinazolin-2-yl)-2-(3,5-difluorophenyl)ethyl)-2-((3bS,4aR)-3-(difluoromethyl)-5,5-difluoro-3b,4,4a,5-tetrahydro-1H-cyclopropa[3,4]cyclopenta[1,2-c]pyrazol-1-yl)acetamide]	0.12	> 500
COc1ccc(-c2ccc3c(=O)n(-c4ccc(Cl)c5c(NS(C)(=O)=O)nn(C)c45)c([C@H](Cc4cc(F)cc(F)c4)NC(=O)Cn4nc(C(F)F)c5c4C(F)(F)[C@@H]4C[C@H]54)nc3c2)nn1 (atropisomer, axis not shown; (P)) [Example 7, N—((S)-1-((3P)-3-(4-chloro-1-methyl-3-(methylsulfonamido)-1H-indazol-7-yl)-7-(6-methoxypyridazin-3-yl)-4-oxo-3,4-dihydroquinazolin-2-yl)-2-(3,5-difluorophenyl)ethyl)-2-((3bS,4aR)-3-(difluoromethyl)-5,5-difluoro-3b,4,4a,5-tetrahydro-1H-cyclopropa[3,4]cyclopenta[1,2-c]pyrazol-1-yl)acetamide]	0.053	> 500
